The values below come from EPA's ToxValDB 9.5 (doi:10.2903/j.efsa.2008.125r).

Converted amounts (≈) assume the structure as drawn.

For one series, the system named is Daphnia magna. The settings on record: chronic/long-term; duration: 21 days; reproduction.
Another series deals with Coturnix japonica. To be noted: acute, oral, mortality.
The next series has as its system Anas platyrhynchos. The settings on record: for LD50: oral, mortality.
The next series has as its system Colinus virginianus. To be noted: for LD50: acute, oral, mortality.
The test system of a further series is Canidae. The settings on record: chronic; duration: 1 years; oral; Dog Other; hematological.
Another series relates to Apis mellifera. The settings on record: acute; duration: 48 hours; oral; unspecified; mortality.
In another series the test system is Oncorhynchus mykiss. The settings on record: acute; duration: 96 hours; mortality.
For another series, the system named is Tagia sp. To be noted: acute; duration: 14 days; mortality.

One may read the NOAEL as the highest tested level that showed no adverse finding. For the compound `CCCCCCCCCCCCC1=C(OC(C)=O)C(=O)c2ccccc2C1=O` [Acequinocyl], the NOEC with Daphnia magna was 0.00098 mg/L. Also, the LD50 is above 847 mg/kg in the series on Coturnix japonica (diet); above 1940 mg/kg with Coturnix japonica; above 1940 mg/kg in the series on Anas platyrhynchos (acute, unspecified); above 1340 mg/kg in the series with Anas platyrhynchos (short-term, feed); above 159 mg/kg in the series on Colinus virginianus (diet); above 300 mg/kg with Colinus virginianus. Further, the LD50 in the series with Apis mellifera was above 100 µg/piece; in the series on Rattus norvegicus (acute, oral, mortality), above 4860 mg/kg. Also, the NOEL in the series on Anas platyrhynchos (reproductive) turned out to be 7.48 mg/kg; in the series with Colinus virginianus (reproduction developmental) it was 217 mg/kg-day. Besides, the no-observed-adverse-effect level (NOAEL) in the series with Canidae was 5 mg/kg-day; in the series on Rattus norvegicus (acute, oral, hematological), 8 mg/kg-day; in the series with Rattus norvegicus (chronic, duration: 2 years, clinical signs), 2.3 mg/kg-day; in the series on Rattus norvegicus (reproduction developmental, clinical signs), 6.9 mg/kg-day. Moreover, the LEL with Typhlodromus pyri (acute, duration: 7 days, mortality) was found to be 300 g/ha; in the series on Typhlodromus pyri (not reported, reproduction), 300 g/ha. The LC50 with Oncorhynchus mykiss is 65 µg/mL (≈ 169 µM); with Tagia sp., above 1000 mg/kg.
